Assays:
[1] = target: pregnane X receptor (PXR) (Homo sapiens, UniProt O75469); experiment: Gal4 hybrid reporter gene assay PXR
Description: These in vitro test systems are based on a constitutively expressed hybrid receptor composed of the ligand binding domain of the respective human nuclear receptor and the DNA binding domain of the yeast receptor Gal4. A Gal4-inducible firefly luciferase serves as reporter gene and a constitutively expressed renilla luciferase is used for normalization of transfection efficacy and internal toxicity control[18],[19]. […] The Gal4-fusion receptor plasmids pFA-CMV-hPPARα-LBD[50], pFA-CMV-hPPARγ-LBD[50], pFA-CMV-hPPARδ-LBD[50], pFA-CMV-hLXRα-LBD[51], pFA-CMV-hLXRβ-LBD[51], pFA-CMV-hRXRα-LBD[52], pFA-CMV-hRXRβ-LBD[52], pFA-CMV-hRXRγ-LBD[52], pFA-CMV-hRARα-LBD[52], pFA-CMV-hRARβ-LBD[52], pFA-CMV-hRARγ-LBD[52], pFA-CMV-hFXR-LBD[53], pFA-CMV-hVDR-LBD[52], pFA-CMV-hCAR-LBD[52] and pFA-CMV-hPXR-LBD[52] coding for the hinge region and ligand binding domain (LBD) of the canonical isoform of the respective nuclear receptor have been reported previously. pFR-Luc (Stratagene) was used as reporter plasmid and pRL-SV40 (Promega) for normalization of transfection efficiency and cell growth.
HEK293T cells were grown in DMEM high glucose, supplemented with 10% FCS, sodium pyruvate (1 mM), penicillin (100 U/mL) and streptomycin (100 μg/mL) at 37 °C and 5% CO2. […] Luminescence was measured with an Infinite M200 luminometer (Tecan Deutschland GmbH). […]

[2] = tested on: PPARγ-regulated genes in HepG2 cells; experiment: PPARγ target gene quantification in HepG2 cells (qPCR); type: cell-based, human; settings: HepG2, 30 μM, 8 h; mean ± SEM, n = 4
Method: HepG2 cells were incubated with 1 (30 μM) or 0.1% DMSO as untreated control for 8 h, harvested, washed with cold phosphate-buffered saline (PBS) and then directly used for RNA extraction. 2 μg total RNA were extracted from HepG2 cells by the Total RNA Mini Kit (R6834-02, Omega Bio-Tek, Inc., Norcross, GA, USA). RNA was reverse-transcribed into cDNA using the High-Capacity cDNA Reverse Transcription Kit (4368814, Thermo Fischer Scientific, Inc.) according to the manufacturer’s protocol. PPARγ target gene expression was evaluated by quantitative real time PCR analysis with a StepOnePlus™ System (Life Technologies, Carlsbad, CA, USA) using Power SYBR Green (Life Technologies; 12.5 μL per well). Each sample was set up in duplicates and repeated in four independent experiments. The expression was quantified by the comparative ∆∆Ct method and glycerinaldehyde 3-phosphate dehydrogenase (GAPDH) served as reference gene. The following PCR primers were used: Adiponectin: 5′-TGGCTATGCTCACAGTCTCACATC-3′ (fwd) and 5′-CTCTGTGCCTCTGGTTCCACAA-3′ (rev); ANGPTL4: 5′-ATTCTTTCCAGCGGCTTCTG-3′ (fwd) and 5′-GAG GAC TGG AGA CGC GGA G-3′ (rev); CD36: 5′-GGC TGT GAC CGG AAC TGT G-3′ (fwd) and 5′-AGGTCTCCAACTGGCATTAGAA-3′ (rev); GAPDH: 5′-ATATGATTCCACCCATGGCA-3′ (fwd) and 5′-GATGATGACCCTTTTGGCTC-3′ (rev).
Results (expressed as mean ± SEM % relative mRNA expression to vehicle (0.1% DMSO); n = 4): Adiponectin: 1 (30 μM): 163 ± 41%; ANGPTL4: 1 (30 μM): 298 ± 49%; CD36: 1 (30 μM): 105 ± 16%.

[3] = Control reporter experiment in absence of a hybrid receptor; type: cell-based; settings: 30 μM, w/o hybrid receptor
Description: These in vitro test systems are based on a constitutively expressed hybrid receptor composed of the ligand binding domain of the respective human nuclear receptor and the DNA binding domain of the yeast receptor Gal4. A Gal4-inducible firefly luciferase serves as reporter gene and a constitutively expressed renilla luciferase is used for normalization of transfection efficacy and internal toxicity control[18],[19].

[4] = Aqueous solubility (noted for ITC); type: physicochemical
Description: To confirm direct modulation of PPARγ by lesinurad, we analyzed their interaction by isothermal titration calorimetry (ITC). Due to limited solubility of lesinurad, recombinant PPARγ ligand binding domain (LBD) protein was (reversely) titrated to the drug.

[5] = design: method as in PMID 27716403, PMID 26951201; settings: cited from earlier work

Sequence of pregnane X receptor (PXR) (O75469 146-433 limits assumed): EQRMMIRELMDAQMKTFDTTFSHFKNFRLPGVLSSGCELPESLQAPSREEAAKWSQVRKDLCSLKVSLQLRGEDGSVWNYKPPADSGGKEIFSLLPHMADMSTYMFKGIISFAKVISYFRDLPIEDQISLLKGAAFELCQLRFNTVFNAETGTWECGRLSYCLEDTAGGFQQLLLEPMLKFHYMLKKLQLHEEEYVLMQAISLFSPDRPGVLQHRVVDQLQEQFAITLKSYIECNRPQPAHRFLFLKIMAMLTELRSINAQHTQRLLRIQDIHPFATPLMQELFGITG

SMILES: O=C(O)CSc1nnc(Br)n1-c1ccc(C2CC2)c2ccccc12 [lesinurad]
- EC50 [1]: 19 ± 1 µM
- PXR transactivation efficacy ([1]; vs. 1 µM SR12813): 145 ± 9%
- ANGPTL4 relative mRNA expression to vehicle [2]: 298 ± 49%
- Adiponectin relative mRNA expression to vehicle [2]: 163 ± 41%
- CD36 relative mRNA expression to vehicle [2]: 105 ± 16%
- reporter transactivation in absence of a hybrid receptor [3]: no reporter transactivation
- aqueous solubility [4]: limited aqueous solubility
- plasma protein binding [5]: 98%

Source: paper PMC6131501, “Urate transporter inhibitor lesinurad is a selective peroxisome proliferator-activated receptor gamma modulator (sPPARγM) in vitro” (Scientific Reports, 2018)
